By pIC50 is commonly meant the IC50 on a negative log10 scale, so that one unit is a factor of ten.

The results in this text go back to patent US11827628B2, “Compositions and methods for inhibition of the JAK pathway” (Rigel Pharmaceuticals, Inc., priority 2005, dated 2023).

pIC50: −log10 of the molar value. Like-named read-outs stand apart in the source and are kept apart here.

This assay deals with up-regulation of ICAM-1 (CD54) by IFNγ in A549 lung epithelial cells. As to the kind of experiment: A549 Epithelial Line Stimulated with IFNγ (ICAM-1 surface expression, FACS). It is filed as cell-based, human. To be noted: ICAM-1 expression by FACS, read-out: IC50, Example 43. In short, it runs like this:
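A549 cells pre-incubated 1 h with compound (30 μM to 14 nM, 5% FBS, 0.3% DMSO), then stimulated with IFNγ (75 ng/mL) for 24 h. Surface ICAM-1 stained with APC anti-CD54 and read by flow cytometry; geometric mean of live-gated events plotted against concentration for EC50.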
(In flow cytometry, cells or beads pass a laser one at a time.)

The mark [1] stands for this setting: A549 epithelial line stimulated with IFNγ.
Where [2] appears, read: A549 cells stimulated with IFNγ.

As for `Cc1ccc(Nc2ncc(F)c(Nc3cc(C)c(OCC(N)=O)c(C)c3)n2)cc1S(N)(=O)=O` [Compound I-96, N4-(4-Aminocarbonylmethoxy-3,5-dimethyl)phenyl-N2-(3-aminosulfonyl-4-methyl)phenyl-5-fluoro-2,4-pyrimidinediamine], the pIC50 under setting [1] is 4.39.

On to `NS(=O)(=O)c1cccc(Nc2ncc(F)c(Nc3ccc(OCc4cccnc4)cc3)n2)c1` [Compound I-188, N2-(3-Aminosulfonylphenyl)-5-fluoro-N4-[4-(3-pyridinyl)methyleneoxyphenyl]-2,4-pyrimidinediamine], for which the pIC50 under setting [1] is 4.82.

As for `Cc1ccc(Nc2ncc(F)c(Nc3ccc(OCc4cccnc4)cc3)n2)cc1S(N)(=O)=O` [Compound I-189, N2-(3-Aminosulfonyl-4-methylphenyl)-5-fluoro-N4-[4-(3-pyridinyl)methyleneoxyphenyl]-2,4-pyrimidinediamine], the pIC50 under setting [1] is 5.17.

For the compound `CNS(=O)(=O)c1cc(Nc2ncc(F)c(Nc3ccc(OCc4cccnc4)cc3)n2)ccc1C` [Compound I-190, 5-Fluoro-N2-[3-(N-methylaminosulfony)-4-methylphenyl]-5-fluoro-N4-[4-(3-pyridinyl)methyleneoxyphenyl]-2,4-pyrimidinediamine], the pIC50 under setting [1] was 5.03.

In the case of `Cc1ccc(Nc2ncc(F)c(Nc3ccc(OCc4ccncc4)cc3)n2)cc1S(N)(=O)=O` [Compound I-194, N2-(3-Aminosulfonyl-4-methylphenyl)-5-fluoro-N4-[4-(4-pyridinyl)methyleneoxyphenyl]-2,4-pyrimidinediamine], the pIC50 under setting [1] was 5.30.

`Cc1ccc(Nc2nc(Nc3ccc(S(N)(=O)=O)cc3)ncc2F)cc1OCC(=O)N1CCOCC1` [Compound I-209, N2-(4-Aminosulfonylphenyl)-5-fluoro-N4-[4-methyl-3-(2-morpholinocarbonylmethyleneoxy)phenyl]-2,4-pyrimidinediamine]: the pIC50 under setting [1] was 5.53.

Consider `N#CCn1ccc2cc(Nc3nc(Nc4cccc(S(N)(=O)=O)c4)ncc3F)ccc21` [IX-5, N2-(3-Aminosulfonylphenyl)-N4-(1-cyanomethyleneindol-5-yl)-5-fluoro-2,4-pyrimidinediamine], for which the pIC50 under setting [2] was 5.21.

On to `N#CCn1ccc2cc(Nc3nc(Nc4ccc(S(N)(=O)=O)cc4)ncc3F)ccc21` [IX-6, N2-(4-Aminosulfonylphenyl)-N4-(1-cyanomethyleneindol-5-yl)-5-fluoro-2,4-pyrimidinediamine], for which, under setting [2], the pIC50 was 4.43.

For the compound `Cc1ccc(Nc2ncc(F)c(Nc3ccc4c(ccn4CC#N)c3)n2)cc1S(N)(=O)=O` [IX-8, N2-(3-Aminosulfonyl-4-methylphenyl)-N4-(1-cyanomethyleneindol-5-yl)-5-fluoro-2,4-pyrimidinediamine], the pIC50 under setting [2] was 5.28.

For `C#CCOc1ccc(Nc2nc(Nc3ccc(C)c(S(=O)(=O)NC4CCN(C)CC4)c3)ncc2F)cc1` [VI-69, 5-Fluoro-N2-{[4-methyl-3-((1-methylpiperidin-4-yl)aminosulfonyl)]phenyl} N4-[4-(prop-2-ynyloxy)phenyl]-2,4-pyrimidinediamine], the pIC50 under setting [2] was 4.73.

Regarding `CCS(=O)(=O)N1CCc2cc(Nc3nc(Nc4cccc(S(N)(=O)=O)c4)ncc3F)ccc2C1` [VII-14, N2-(3-aminosulfonyl)phenyl-N4-[(N-ethylsulfonyl)-1,2,3,4-tetrahydroisoquinolin-6-yl]-5-fluoro-2,4-pyrimidinediamine], under setting [2], the pIC50 is 5.00.

Take `CCS(=O)(=O)N1CCc2cc(Nc3nc(Nc4ccc(C)c(S(N)(=O)=O)c4)ncc3F)ccc2C1` [VII-15, N2-(3-aminosulfonyl-4-methyl)phenyl-N4-[(N-ethylsulfonyl)-1,2,3,4-tetrahydroisoquinolin-6-yl]-5-fluoro-2,4-pyrimidinediamine]: under setting [2], the pIC50 is 4.88.

In the case of `CNC(=O)N1CCCc2cc(Nc3nc(Nc4ccc(C)c(S(N)(=O)=O)c4)ncc3F)ccc21` [VII-19, N2-(3-Aminosulfonyl-4-methylphenyl)-5-fluoro-N4-[1-(methylaminocarbonyl)-1,2,3,4-tetrahydroquin-6-yl]-2,4-pyrimidinediamine], the pIC50 under setting [2] is 4.90.
